The structures appear in SMILES notation. pIC50: −log10 of the molar value. Bounds are passed on as bounds.

The test concerns the target LSD-1 enzyme (Homo sapiens (Human), UniProt O60341). Briefly: LANCE LSD1/KDM1A demethylase assay (LSD1 histone demethylase biochemical assay). To be noted: 1 nM LSD-1 enzyme, 1 hour preincubation at 25° C., Biotin-labeled Histone H3 peptide substrate. How it is done:
Example A: LSD1 Histone Demethylase Biochemical Assay
LANCE LSD1/KDM1A demethylase assay—10 μL of 1 nM LSD-1 enzyme (ENZO BML-SE544-0050) in the assay buffer (50 mM Tris, pH 7.5, 0.01% Tween-20, 25 mM NaCl, 5 mM DTT) were preincubated for 1 hour at 25° C. with 0.8 μL compound/DMSO dotted in black 384 well polystyrene plates. […] Reactions were stopped by addition of 10 μL 1×LANCE Detection Buffer (PerkinElmer CR97-100) supplemented with 1.5 nM Eu-anti-unmodified H3K4 Antibody (PerkinElmer TRF0404), and 225 nM LANCE Ultra Streptavidin (PerkinElmer TRF102) along with 0.9 mM Tranylcypromine-HCl (Millipore 616431). After stopping the reactions plates were incubated for 30 minutes and read on a PHERAstar FS plate reader (BMG Labtech).
Consider `CN(C)C1CCN(c2nc(-c3ccc(C#N)cc3)c(-c3ccc4c(c3F)n(C)c(=O)n4C)c3nccn23)CC1` [Example 127, 4-[5-[4-(dimethylamino)piperidin-1-yl]-8-(4-fluoro-1,3-dimethyl-2-oxo-2,3-dihydro-1H-benzimidazol-5-yl)imidazo[1,2-c]pyrimidin-7-yl]benzonitrile], for which the pIC50 (usually the negative decadic logarithm of the IC50, by convention in mol/L) is at least 7.30.
Then `CCN1CCC[C@@H](COc2nc(-c3ccc(C#N)cc3)c(-c3ccc4c(c3)oc(=O)n4C)c3nccn23)C1` [Example 55, 4-[5-{1[(3R)-1-ethylpiperidin-3-yl]methoxy}-8-(3-methyl-2-oxo-2,3-dihydro-1,3-benzoxazol-6-yl)imidazo[1,2-c]pyrimidin-7-yl]benzonitrile], with at least 7.30.
Then `CN1CCC[C@@H](COc2nc(-c3ccc(C#N)cc3)c(-c3ccc(CO)c(Cl)c3)c3nccn23)C1` [Example 101, 4-(8-[3-chloro-4-(hydroxymethyl)phenyl]-5-{[(3R)-1-methylpiperidin-3-yl]methoxy}imidazo[1,2-c]pyrimidin-7-yl)benzonitrile], with at least 7.30; and `CN1CCC[C@@H](COc2nc(-c3ccc(C#N)cc3)c(-c3ccc4c(c3)OCC(=O)N4C)c3nccn23)C1` [Example 15, 4-(8-(4-methyl-3-oxo-3,4-dihydro-2H-1,4-benzoxazin-7-yl)-5-{[(3R)-1-methylpiperidin-3-yl]methoxy}imidazo[1,2-c]pyrimidin-7-yl)benzonitrile], with 6.30 to 7.30.
Compound `C[C@@H](O)CN1CCC[C@@H](COc2nc(-c3ccc(C#N)cc3)c(-c3ccc4c(c3)oc(=O)n4C)c3nccn23)C1` [Example 133, 4-[5-({(3R)-1-[(2R)-2-hydroxypropyl]piperidin-3-yl}methoxy)-8-(3-methyl-2-oxo-2,3-dihydro-1,3-benzoxazol-6-yl)imidazo[1,2-c]pyrimidin-7-yl]benzonitrile] gave a pIC50 of 6.30 to 7.30.
`CN1CCC[C@@H](COc2nc(-c3ccc(C#N)cc3)c(-c3ccc(N4CCCC4=O)nc3)c3nccn23)C1` [Example 16, 4-{5-{[(3R)-1-methylpiperidin-3-yl]methoxy}-8-[6-(2-oxopyrrolidin-1-yl)pyridin-3-yl]imidazo[1,2-c]pyrimidin-7-yl}benzonitrile]: the pIC50 is 6.30 to 7.30.
For `C[C@H](O)CN1CCC[C@@H](COc2nc(-c3ccc(C#N)cc3)c(-c3cnc4c(cnn4C)c3)c3nccn23)C1` [Example 137, 4-[5-({(3R)-1-[(2S)-2-hydroxypropyl]piperidin-3-yl}methoxy)-8-(1-methyl-1H-pyrazolo[3,4-b]pyridin-5-yl)imidazo[1,2-c]pyrimidin-7-yl]benzonitrile] the value was at least 7.30.
In the case of `CN(C)c1ncc(-c2c(-c3ccc(C#N)cc3)nc(N3CCC(N(C)C)CC3)n3ccnc23)cc1F` [Example 82, 4-{8-[6-(dimethylamino)-5-fluoropyridin-3-yl]-5-[4-(dimethylamino)piperidin-1-yl]imidazo[1,2-c]pyrimidin-7-yl}benzonitrile], the negative-log IC50 (pIC50) is at least 7.30.
`COc1ncc(-c2c(-c3ccc(C#N)cc3)nc(OC[C@@H]3CCCN(CCO)C3)n3ccnc23)cc1F` [Example 57, 4-(8-(5-fluoro-6-methoxypyridin-3-yl)-5-{[(3R)-1-(2-hydroxyethyl)piperidin-3-yl]methoxy}imidazo[1,2-c]pyrimidin-7-yl)benzonitrile] showed a pIC50 of at least 7.30.
For `CN(C)C1CCN(c2nc(-c3ccc(C#N)cc3)c(-c3ccc4scnc4c3)c3nccn23)CC1` [Example 120, 4-{8-(1,3-benzothiazol-5-yl)-5-[4-(dimethylamino)piperidin-1-yl]imidazo[1,2-c]pyrimidin-7-yl}benzonitrile] the value was at least 7.30; for `CN1CCC[C@@H](COc2nc(-c3ccc(C#N)cc3)c(-c3ccc4c(c3)N(C)C(=O)CC4)c3nccn23)C1` [Example 79, 4-(8-(1-methyl-2-oxo-1,2,3,4-tetrahydroquinolin-7-yl)-5-{[(3R)-1-methylpiperidin-3-yl]methoxy}imidazo[1,2-c]pyrimidin-7-yl)benzonitrile], 6.30 to 7.30; for `CN(C)C1CCN(c2nc(-c3ccc(C#N)cc3)c(-c3cc(F)c4c(c3)oc(=O)n4C)c3nccn23)CC1` [Example 58, 4-[5-[4-(dimethylamino)piperidin-1-yl]-8-(4-fluoro-3-methyl-2-oxo-2,3-dihydro-1,3-benzoxazol-6-yl)imidazo[1,2-c]pyrimidin-7-yl]benzonitrile], at least 7.30.
Then `CCN1CCC[C@@H](COc2nc(-c3ccc(C#N)cc3)c(-c3cc(C)c(CO)c(F)c3)c3nccn23)C1` [Example 109, 4-{5-{[(3R)-1-ethylpiperidin-3-yl]methoxy}-8-[3-fluoro-4-(hydroxymethyl)-5-methylphenyl]imidazo[1,2-c]pyrimidin-7-yl}benzonitrile], with at least 7.30; and `CN1CCC2(CCN(c3nc(-c4ccc(C#N)cc4)c(-c4cnc5c(cnn5C)c4)c4nccn34)C2)C1` (stereo not drawn) [Example 39, 4-[5-(7-methyl-2,7-diazaspiro[4.4]non-2-yl)-8-(1-methyl-1H-pyrazolo[3,4-b]pyridin-5-yl)imidazo[1,2-c]pyrimidin-7-yl]benzonitrile], with at least 7.30; and `CN1C(=O)CCc2cc(-c3c(-c4ccc(C#N)cc4)nc(N4CCC(N(C)C)CC4)n4ccnc34)ccc21` [Example 130, 4-[5-[4-(dimethylamino)piperidin-1-yl]-8-(1-methyl-2-oxo-1,2,3,4-tetrahydroquinolin-6-yl)imidazo[1,2-c]pyrimidin-7-yl]benzonitrile], with at least 7.30.
`Cc1ccc(-c2c(-c3ccc(C#N)cc3)nc(OC[C@@H]3CCCN(C)C3)n3ccnc23)cn1` [Example 73, 4-[5-{[(3R)-1-methylpiperidin-3-yl]methoxy}-8-(6-methylpyridin-3-yl)imidazo[1,2-c]pyrimidin-7-yl]benzonitrile]: the pIC50 was 6.30 to 7.30.
For `Cc1ncc(-c2c(-c3ccc(C#N)cc3)nc(N3CCC(N(C)C)CC3)n3ccnc23)cc1C#N` [Example 66, 5-{7-(4-cyanophenyl)-5-[4-(dimethylamino)piperidin-1-yl]imidazo[1,2-c]pyrimidin-8-yl}-2-methylnicotinonitrile] the value was 6.30 to 7.30; for `Cn1ncc2cc(-c3c(-c4ccc(C#N)cc4)nc(OC[C@@H]4CCCN(CC(C)(C)O)C4)n4ccnc34)cnc21` [Example 138, 4-[5-{[(3R)-1-(2-hydroxy-2-methylpropyl)piperidin-3-yl]methoxy}-8-(1-methyl-1H-pyrazolo[3,4-b]pyridin-5-yl)imidazo[1,2-c]pyrimidin-7-yl]benzonitrile], 6.30 to 7.30; for `COC(=O)N(C)c1ccc(-c2c(-c3ccc(C#N)cc3)nc(OC[C@@H]3CCCN(C)C3)n3ccnc23)cc1F` [Example 75], 6.30 to 7.30.
Then `CN1C(=O)COc2cc(-c3c(-c4ccc(C#N)cc4)nc(N4CCC(N(C)C)CC4)n4ccnc34)ccc21` [Example 51, 4-[5-[4-(dimethylamino)piperidin-1-yl]-8-(4-methyl-3-oxo-3,4-dihydro-2H-1,4-benzoxazin-7-yl)imidazo[1,2-c]pyrimidin-7-yl]benzonitrile], with at least 7.30; and `CN1CC[C@@H](COc2nc(-c3ccc(C#N)cc3)c(-c3cnc4c(c3)OCCN4C)c3nccn23)C1` [Example 24, 4-(8-(4-methyl-3,4-dihydro-2H-pyrido[3,2-b][1,4]oxazin-7-yl)-5-{[(3R)-1-methylpyrrolidin-3-yl]methoxy}imidazo[1,2-c]pyrimidin-7-yl)benzonitrile], with at least 7.30.
